Several values for one entry are separate records, joined by “and”; a condition that tells them apart may be missing. Equal values may be shown once. Strand notation (5' to 3'): a small letter for the sugar, then the base; units joined by * are phosphorothioate-linked, units joined directly phosphodiester-linked; [ ] holds rarer units or linkages, { } end groups; capitals alone tell only the bases. e = 2'-O-(2-methoxyethyl) (MOE); k = constrained ethyl (cEt); [5mC] = 5-methylcytosine; d = 2'-deoxy (DNA)
Key:
human PKK mRNA [1] = test: Dose-dependent antisense inhibition of human PKK in HepaRG cells, 0.11-3.00 uM (Example 6); type: cell-based; conditions: for IC50: 0.11-3.00 μM; for percent inhibition of PKK mRNA, 1.00 μM / percent inhibition of PKK mRNA, 3.00 μM / percent inhibition of PKK mRNA, 0.11 μM / percent inhibition of PKK mRNA, 0.33 μM: electroporation, approx. 16 hours, relative to untreated control cells
Method: Cells were plated at a density of 20,000 cells per well and transfected using electroporation with 0.11 μM, 0.33 μM, 1.00 μM, and 3.00 μM concentrations of antisense oligonucleotide. After a treatment period of approximately 16 hours, RNA was isolated from the cells and PKK mRNA levels were measured by quantitative real-time PCR. Human PKK primer probe set RTS3454 was used to measure mRNA levels. PKK mRNA levels were adjusted according to total RNA content, as measured by RIBOGREEN®. The antisense oligonucleotides were tested in a series of experiments that had similar culture conditions.
The half maximal inhibitory concentration (IC50) of each oligonucleotide is also presented.

human PKK mRNA [2] = test: Antisense inhibition of human PKK mRNA in HepaRG cells, 1,000 nM, MOE/deoxy/cEt oligonucleotides (Example 3); type: cell-based
In short: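 Readout is percent PKK mRNA reduction against untreated controls, by real-time PCR (RTS3454) adjusted for total RNA via RIBOGREEN. Oligonucleotides, phosphorothioate gapmers of 16 nucleosides with cEt, MOE and deoxy sugars, were delivered at 1,000 nM by electroporation to 20,000 HepaRG cells/well for roughly 24 h.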

[3] = HepaRG cells, electroporation with 1,000 nM antisense oligonucleotide, approximately 24 hours, primer probe set RTS3454, relative to untreated control cells, experiment of Table 23
[4] = Table 20, HepaRG cells, electroporation with 1,000 nM antisense oligonucleotide, approximately 24 hours, PKK mRNA by RT-PCR (RTS3454), relative to untreated control cells
[5] = Table 21 experiment, HepaRG cells, electroporation with 1,000 nM antisense oligonucleotide, approx. 24 hours, PKK mRNA by RT-PCR (RTS3454), relative to untreated control cells
[6] = Table 22 experiment, HepaRG cells, electroporation with 1,000 nM antisense oligonucleotide, approx. 24 hours, PKK mRNA by RT-PCR (RTS3454), relative to untreated control cells

Row | Substance | IC50 (human PKK mRNA [1]) | percent inhibition of PKK mRNA, 1.00 μM (human PKK mRNA [1]) | percent inhibition of PKK mRNA, 3.00 μM (human PKK mRNA [1]) | % inhibition (human PKK mRNA [2]; HepaRG cells, 1,000 nM antisense oligonucleotide, Table 29) [%] | % inhibition (human PKK mRNA [2]; HepaRG cells, electroporation with 1,000 nM antisense oligonucleotide, approx. 24 hours, PKK mRNA by RT-PCR (RTS3454), relative to untreated control cells, Table 25 experiment) [%] | % inhibition (human PKK mRNA [2]; HepaRG cells, electroporation with 1,000 nM antisense oligonucleotide, approx. 24 hours, PKK mRNA by RT-PCR (RTS3454), relative to untreated control cells, Table 26 experiment) [%] | % inhibition (human PKK mRNA [2]; [3]) [%] | % inhibition (human PKK mRNA [2]; HepaRG cells, electroporation with 1,000 nM antisense oligonucleotide, approximately 24 hours, primer probe set RTS3454, relative to untreated control cells, experiment of Table 24) [%] | % inhibition (human PKK mRNA [2]; PKK mRNA, HepaRG cells, 1,000 nM antisense oligonucleotide, Table 31) [%] | % inhibition (human PKK mRNA [2]; Table 19, HepaRG cells, electroporation with 1,000 nM antisense oligonucleotide, approximately 24 hours, PKK mRNA by RT-PCR (RTS3454), relative to untreated control cells) [%] | % inhibition (human PKK mRNA [2]; [4]) [%] | % inhibition (human PKK mRNA [2]; [5]) [%] | % inhibition (human PKK mRNA [2]; [6]) [%] | % inhibition (human PKK mRNA [2]; Table 27, HepaRG cells, 1,000 nM antisense oligonucleotide, human PKK mRNA) [%] | % inhibition (human PKK mRNA [2]; Table 28, HepaRG cells, 1,000 nM antisense oligonucleotide, human PKK mRNA) [%] | % inhibition (human PKK mRNA [2]; Table 30, human PKK mRNA, HepaRG cells, 1,000 nM antisense oligonucleotide) [%] | percent inhibition of PKK mRNA, 0.11 μM (human PKK mRNA [1]) [%] | percent inhibition of PKK mRNA, 0.33 μM (human PKK mRNA [1]) [%]
1 | 547747 (eT*e[5mC]*kA*d[5mC]*dT*dG*dT*dA*d[5mC]*dT*dA*dG*dT*kT*kT*e[5mC]) [compound 547747] | 400 nM and 300 nM and 500 nM | 81% and 90% and 72% and 85% | 89% and 92% and 90% and 96% | 64 | 66 | 80 | 83 | 80 | 88 | 95 | 84 | 88 | 91 | 67 | 64 | 64 |  | 
2 | 547769 (antisense eT*eT*kG*dG*dA*dG*dG*dT*dG*dA*dG*dT*d[5mC]*kT*k[5mC]*eT) [compound 547769] | 600 nM | 80% | 96% |  |  |  |  |  |  |  |  | 81 |  |  |  |  | 12 | 17
3 | 547807 (eG*e[5mC]*kA*dG*dT*dA*dT*dT*dG*dG*dG*d[5mC]*dA*kT*kT*eT; antisense) [compound 547807] | 400 nM | 61% | 94% |  |  |  |  |  |  |  |  | 75 |  |  |  |  | 26 | 71
4 | 547808 (e[5mC]*eA*kT*d[5mC]*dT*dG*dG*d[5mC]*dA*dG*dT*dA*dT*kT*kG*eG; antisense) [compound 547808] | 1100 nM | 48% | 71% |  |  |  |  |  |  |  |  | 56 |  |  |  |  | 19 | 22
5 | 547824 (e[5mC]*eG*kA*dT*dG*dT*dA*d[5mC]*dT*dT*dT*dT*dG*kG*k[5mC]*eA; antisense) [compound 547824] |  | 78% |  |  |  |  |  |  |  |  |  | 82 |  |  |  |  | 45 | 73
6 | 547835 (e[5mC]*e[5mC]*kA*dG*dA*dA*dA*d[5mC]*dT*dG*d[5mC]*dA*d[5mC]*k[5mC]*kT*eG; antisense) [compound 547835] | 900 nM | 53% | 79% |  |  |  |  |  |  |  |  | 81 |  |  |  |  | 44 | 27
7 | 547843 (antisense e[5mC]*eA*k[5mC]*dT*dT*dA*dT*dT*dT*dG*dA*dT*dG*kA*k[5mC]*e[5mC]) [compound 547843] | 400 nM | 80% | 91% |  |  |  |  |  |  |  | 83 |  | 83 |  |  |  | 0 | 52
8 | 547849 (antisense eA*eA*kT*dG*dT*d[5mC]*dT*d[5mC]*dG*dA*dT*dG*dG*k[5mC]*kA*eA) [compound 547849] | 300 nM | 67% |  |  |  |  |  |  |  |  | 79 |  | 90 |  |  |  | 36 | 52
9 | 547851 (antisense eT*eA*kA*dA*dT*dG*dT*d[5mC]*dT*d[5mC]*dG*dA*dT*kG*kG*e[5mC]) [compound 547851] | 400 nM | 83% |  |  |  |  |  |  |  |  | 93 |  | 84 |  |  |  | 16 | 46
10 | 547857 (antisense e[5mC]*eT*k[5mC]*dA*dT*dA*dT*d[5mC]*dA*dA*d[5mC]*dT*d[5mC]*k[5mC]*kT*eT) [compound 547857] | 200 nM | 77% | 93% |  |  |  |  |  |  |  |  |  | 84 |  |  |  | 36 | 66
11 | 547859 (antisense e[5mC]*e[5mC]*kT*d[5mC]*dT*d[5mC]*dA*dT*dA*dT*d[5mC]*dA*dA*k[5mC]*kT*e[5mC]) [compound 547859] | 300 nM | 83% | 78% |  |  |  |  |  |  |  | 77 |  | 88 |  |  |  | 29 | 56
12 | 547861 (antisense eA*e[5mC]*kT*d[5mC]*d[5mC]*dT*d[5mC]*dT*d[5mC]*dA*dT*dA*dT*k[5mC]*kA*eA) [compound 547861] | 500 nM | 75% | 84% |  |  |  |  |  |  |  | 0 |  | 57 |  |  |  | 7 | 40
13 | 547862 (antisense eG*eA*k[5mC]*dT*d[5mC]*d[5mC]*dT*d[5mC]*dT*d[5mC]*dA*dT*dA*kT*k[5mC]*eA) [compound 547862] | 300 nM | 69% |  |  |  |  |  |  |  |  | 22 |  | 88 |  |  |  | 26 | 71
14 | 547870 (antisense e[5mC]*eT*kA*dA*d[5mC]*d[5mC]*dT*dT*dA*dG*dA*d[5mC]*dA*k[5mC]*kA*eT) [compound 547870] | 600 nM | 80% | 97% |  |  |  |  |  |  |  | 89 |  | 83 |  |  |  | 0 | 44
15 | 547877 (antisense eA*eA*k[5mC]*dA*d[5mC]*dT*dG*d[5mC]*dT*dA*dA*d[5mC]*d[5mC]*kT*kT*eA) [compound 547877] | 200 nM | 83% |  |  |  |  |  |  |  |  | 81 |  | 93 |  |  |  | 29 | 66
16 | 547922 (eT*eG*kG*dA*dG*dT*dG*dA*dG*dA*dA*d[5mC]*d[5mC]*k[5mC]*kT*eG; antisense) [compound 547922] |  | 81% | 92% |  |  |  | 79 |  |  |  |  |  |  |  |  |  | 67 | 75
